Calls of active or inactive are those of the source. The calls are words filed in the database; no cut-off is given here.

In general, IC50 refers to the point on the concentration scale where inhibition reaches its midpoint. Low values mean greater potency in that assay, high ones weaker potency in that assay.

In experiment [1] the test system is Felis catus. The experiment in a line: Inhibition of the positive chronotropic effect of stimulation of the cardioaccelerator nerve in the anesthetized cat. The format is functional, organism-based.
The test system of another experiment is Canis familiaris. The experiment in a line: Effective dose for emetic activity after administration to dog. The note with it: Canis lupus familiaris. It counts as functional.
The species named for experiment [2] is Felis catus. The experiment in a line: Inhibition of positive chronotropic effect of the cardioaccelerator was determined. The note with it: read-out: ID50 (the source's name). It counts as functional.
Experiment [3] concerns the target T1, Dopamine receptor (Bos taurus, UniProt Q95136+P20288). The experiment in a line: Inhibitory binding activity against dopamine receptor using [3H]ADTN as the radioligand in striatal tissue of calf brain. The format is tissue-based, Striatum.
The target of experiment [4] is T1, Dopamine receptor. The experiment in a line: Inhibitory binding activity against dopamine receptor using [3H]spiperone as the radioligand in striatal tissue of calf brain. It counts as tissue-based, Striatum.
For experiment [5], the species on record is Felis catus. In words: The compound was evaluated for its ability to inhibit the positive chronotropic effect of the cardioaccelerator. The format is functional. The note with it: read-out: ID50 (the source's name).
Experiment [6] in a line: The compound was tested for its emetic activity in dog, activity expressed as potency ratio. The format is functional.
Experiment [7] has as its target T1, Dopamine receptor. The experiment in a line: Inhibitory binding activity against dopamine receptor using [3H]spiperone as the radioligand in striatal tissue of calf brain. The format is tissue-based, Striatum.
Experiment [8] deals with T1, Dopamine receptor. In words: Inhibitory binding activity against dopamine receptor using [3H]ADTN as the radioligand in striatal tissue of calf brain. It counts as tissue-based, Striatum.
Experiment [9] relates to Felis catus. The experiment in a line: The compounds were evaluated for their ability to inhibit the positive chronotropic effect of stimulation of the cardioaccelerator nerve in the anesthetized cat. The format is functional. The note with it: read-out: ID50 (the source's name).

With `CCCNC1Cc2ccc(O)c(O)c2C1` (configuration not stated), in the experiment with Felis catus [1], the ID50 result is “inactive”.
As for `CNC1Cc2cc(OC)c(OC)cc2C1`, in the experiment on Felis catus [1], the ID50 entry is “inactive”.
On the same count and under the same terms, to `CNC1Cc2cc(O)c(O)cc2C1` belongs “Increased heart rate at 3umol/kg”.
Regarding `CCNC1Cc2ccc(OC)c(OC)c2C1` (configuration not stated), the ID50 result in the experiment with Felis catus [1] was “inactive”.
Still for that read-out and setting: the result for `CCN(CC)C1Cc2cc(OC)c(OC)cc2C1` reads “inactive”; that for `COc1cc2c(cc1OC)CC(N(C)C(C)C)C2`, “inactive”.
On the same count and under the same terms, to `NC1Cc2ccc(O)c(O)c2C1` (configuration not stated) belongs “Increased heart rate at 3umol/kg”.
Same read-out and setting: the result for `CNC1Cc2ccc(O)c(O)c2C1` (configuration not stated) reads “Increased heart rate at 3umol/kg”; that for `CNC1Cc2ccc(OC)c(OC)c2C1` (configuration not stated), “inactive”.
With `CC(C)NC1Cc2cc(O)c(O)cc2C1`, in the experiment on Felis catus [1], the ID50 result is “Increased heart rate at 3umol/kg”.
In the case of `CN1CCc2cccc3c2[C@H]1Cc1ccc(O)c(O)c1-3` [APOMORPHINE], the figures for the ED50 in the experiment on Canis familiaris and in the experiment listed under Felis catus [2] were 0.07 mg/kg and 0.022 µmol/kg, respectively.
Consider `CCCNC1Cc2ccc(OC)c(OC)c2C1.Cl` (configuration not stated), for which the IC50 is 51000 µM on Dopamine receptor [3] and 105 µM on Dopamine receptor [4]. Moreover, in the experiment with Felis catus [1], the ID50 result is “inactive”.
Consider `COc1ccc2c(c1OC)CC(NC(C)C)C2` (configuration not stated), for which the ID50 entry with Felis catus [1] is “inactive”.
For the molecule `Br.CCN(CC)C1Cc2cc(O)c(O)cc2C1`, at Dopamine receptor [4], the IC50 was determined as 246 µM. Moreover, the ID50 entry with Felis catus [1] is on record as “Increased heart rate”.
In the case of `CC(C)NC1Cc2ccc(O)c(O)c2C1` (configuration not stated), in the experiment on Felis catus [1], the ID50 entry was “inactive”.
Take `Br.CCCN(CCC)C1Cc2cc(O)c(O)cc2C1`: the values for the IC50 on Dopamine receptor [3] and at Dopamine receptor [4] were 412 µM and 17.6 µM, respectively. Moreover, the ED50 in the experiment listed under Felis catus [2] was > 3 µmol/kg.
As for `Br.CCN(CC)C1Cc2ccc(O)c(O)c2C1` (configuration not stated), the ED50 in the experiment listed under Felis catus [5] was determined as 0.05 µmol/kg. Also, the IC50 on Dopamine receptor [3] was 39 µM; at Dopamine receptor [4], 220 µM. Further, in [6], the Potency ratio is reported as 0.26.
Regarding `NCCc1ccc(O)c(O)c1` [DOPAMINE], in the experiment filed under Felis catus [2], the ED50 stood at 0.105 µmol/kg.
For `COc1ccc2c(c1OC)CC(N(C)C)C2` (configuration not stated), the IC50 at Dopamine receptor [3] was 2300 µM; on Dopamine receptor [4] it was 100 µM. Also, the ID50 entry with Felis catus [1] was “inactive”.
For `CCNC1Cc2ccc(O)c(O)c2C1` (configuration not stated), the ED50 in the experiment listed under Felis catus [2] is > 1 µmol/kg.
Regarding `Br.CN(C)C1Cc2ccc(O)c(O)c2C1` (configuration not stated), the IC50 was determined as 91 µM on Dopamine receptor [7] and 10 µM on Dopamine receptor [8]. In addition, in the experiment with Felis catus [1], the ID50 result is reported as “Increased heart rate”.
For `COc1cc2c(cc1OC)CC(N)C2`, in the experiment with Felis catus [1], the ID50 result was “inactive”.
As for `Br.CCCN(CCC)C1Cc2ccc(O)c(O)c2C1` (configuration not stated), the ED50 in the experiment listed under Felis catus [5] is 0.02 µmol/kg. The IC50 came out at 10 µM on Dopamine receptor [3] and 53.86 µM at Dopamine receptor [4]. In addition, in [6], the Potency ratio was determined as 1.24.
In the case of `COc1ccc2c(c1OC)CC(N)C2` (configuration not stated), the ID50 result with Felis catus [1] was “inactive”.
Take `COc1cc2c(cc1OC)CC(NC(C)C)C2`: in the experiment on Felis catus [1], the ID50 entry is “inactive”.
For `Br.CCN(CC)C1Cc2ccc(OC)c(OC)c2C1` (configuration not stated), the 50% inhibitory concentration (IC50) was 1660 µM on Dopamine receptor [3] and 29 µM at Dopamine receptor [4]. The ID50 result in the experiment with Felis catus [1] was “inactive”.
With `NC1Cc2cc(O)c(O)cc2C1`, in the experiment with Felis catus [1], the ID50 entry is on record as “Increased heart rate at 3umol/kg”.
The same measure, in the same setting: to `CC(C)N(C)C1Cc2cc(O)c(O)cc2C1` belongs “Increased heart rate at 3umol/kg”.
`CCCN(CCC)C1Cc2cc(OC)c(OC)cc2C1.Cl`: the IC50 at Dopamine receptor [4] worked out at 10.4 µM. The ID50 result in the experiment with Felis catus [1] was “inactive”.
With `COc1cc2c(cc1OC)CC(N(C)C)C2.Cl`, the 50% inhibitory concentration (IC50) stood at 400 µM on Dopamine receptor [3] and 50 µM at Dopamine receptor [4]. In addition, in the experiment with Felis catus [1], the ID50 entry was “inactive”.
On the same counts, the results for `Br.CN(C)C1Cc2cc(O)c(O)cc2C1` are 6 µM, 104 µM and “Increased heart rate”.
Consider `CN1C[C@H](CC#N)C[C@@H]2c3cccc4[nH]c(Cl)c(c34)C[C@H]21` [LERGOTRILE], for which the figures for the IC50 on Dopamine receptor [3] and on Dopamine receptor [4] were 4.5 µM and 23.7 µM, respectively. In the experiment on Felis catus [9], the ED50 came to 0.27 µmol/kg.

The values above are taken from ChEMBL document CHEMBL1121984 (J Med Chem, 1982).
